# Results as given in ChEMBL document CHEMBL1139221, “2-(4-Chlorobenzyl)-3-hydroxy-7,8,9,10-tetrahydrobenzo[H]quinoline-4-carboxylic acid (PSI-697): identification of a clinical candidate from the quinoline salicylic acid series of P-selectin antagonists” (J Med Chem, 2007).
# Activity calls are given as the source filed them. The calls are words filed in the database; no cut-off is given here.
# Molecular target: T1, P-selectin (Homo sapiens) (UniProt P16109)
# T1 sequence (whole entry): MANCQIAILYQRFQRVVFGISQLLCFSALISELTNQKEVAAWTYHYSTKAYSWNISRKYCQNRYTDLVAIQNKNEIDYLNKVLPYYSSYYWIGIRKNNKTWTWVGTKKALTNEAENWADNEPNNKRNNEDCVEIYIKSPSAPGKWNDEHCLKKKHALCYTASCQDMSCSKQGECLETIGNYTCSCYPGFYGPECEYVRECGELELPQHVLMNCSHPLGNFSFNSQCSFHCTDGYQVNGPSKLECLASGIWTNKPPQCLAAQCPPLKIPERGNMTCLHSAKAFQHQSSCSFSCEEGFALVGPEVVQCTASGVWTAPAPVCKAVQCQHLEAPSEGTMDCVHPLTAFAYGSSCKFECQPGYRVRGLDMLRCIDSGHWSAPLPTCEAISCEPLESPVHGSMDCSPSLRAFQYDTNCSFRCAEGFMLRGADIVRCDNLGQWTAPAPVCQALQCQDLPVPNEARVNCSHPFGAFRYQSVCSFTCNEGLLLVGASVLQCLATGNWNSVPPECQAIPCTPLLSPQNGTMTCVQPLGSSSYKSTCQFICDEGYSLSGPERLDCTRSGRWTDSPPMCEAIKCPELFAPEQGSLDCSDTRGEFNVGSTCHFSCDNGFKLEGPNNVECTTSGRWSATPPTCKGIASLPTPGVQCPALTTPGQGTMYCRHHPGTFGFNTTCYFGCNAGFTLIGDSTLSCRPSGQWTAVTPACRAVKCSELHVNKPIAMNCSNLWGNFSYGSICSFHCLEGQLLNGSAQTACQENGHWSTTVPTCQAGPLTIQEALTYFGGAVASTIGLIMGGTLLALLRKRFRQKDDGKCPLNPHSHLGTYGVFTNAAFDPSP
# Assay: Inhibition of P-Selectin by Biacore assay at 250 uM
row,inhibition,SMILES
1,19%,O=C(Nc1c(Cc2ccc(Cl)cc2)nc2c3c(ccc2c1C(=O)O)CCCC3)c1ccccc1
2,13%,CC(C)C(=O)Oc1c(Cc2ccc(Cl)cc2)nc2c3c(ccc2c1C(=O)O)CCCC3
3,10%,CC(=O)Nc1c(Cc2ccc(Cl)cc2)nc2c3c(ccc2c1C(=O)O)CCCC3
4,20%,COc1c(Cc2ccc(Cl)cc2)nc2c3c(ccc2c1C(=O)O)CCCC3
5,15%,Nc1c(Cc2ccc(Cl)cc2)nc2c3c(ccc2c1C(=O)O)CCCC3

# Molecular target: T2, P-selectin (Homo sapiens, UniProt P16109)
# T2 sequence (P16109 whole entry): T1 sequence (whole entry)
# Assay: (§1) Inhibition of P-Selectin by Biacore assay
row,IC50,SMILES
1,225 µM,O=C(O)c1c(O)c(Cc2coc3ccccc23)nc2c3c(ccc12)CCCC3
2,250 µM,CCc1cccc2c(C(=O)O)c(O)c(Cc3ccc(Cl)cc3)nc12
3,550 µM,O=C(O)c1c(O)c(-c2ccccc2)nc2c3c(ccc12)CCCC3
4,625 µM,CS(=O)(=O)N1CCc2ccc3c(C(=O)O)c(O)c(Cc4ccc(Cl)cc4)nc3c2C1
5,900 µM,O=C(O)c1c(O)c(Cc2ccc(Cl)cc2)nc2cc(Cl)ccc12
6,175 µM,O=C(O)c1c(OC(=O)C2CCCCC2)c(Cc2ccc(Cl)cc2)nc2c3c(ccc12)CCCC3
7,610 µM,O=C(O)c1c(O)c(Cc2ccc(OC(F)(F)F)cc2)nc2c3c(ccc12)CCCC3
8,415 µM,CC(C)c1cccc2c(C(=O)O)c(O)c(Cc3c[nH]c4ccccc34)nc12
9,125 µM,O=C(O)c1c(O)c(Nc2ccc(Cl)cc2)nc2c(C(F)(F)F)cccc12
10,150 µM,O=C(O)c1c(O)c(Cc2ccc(Cl)cc2)nc2c(-c3ccoc3)cccc12
11,380 µM,O=C(O)c1c(O)c(Cc2c[nH]c3ccccc23)nc2c(-c3ccsc3)cccc12
12,1000 µM,Cc1cccc2c(C(=O)O)c(O)c(Cc3ccc(Cl)cc3)nc12
13,270 µM,Cc1[nH]c2ccccc2c1Cc1nc2c3c(ccc2c(C(=O)O)c1O)CCCC3
14,300 µM,CCC(C)c1cccc2c(C(=O)O)c(O)c(Cc3ccc(Cl)cc3)nc12 (centres undefined)
15,650 µM,O=C(O)c1c(O)c(Cc2ccc(Cl)cc2)nc2ccc(Br)cc12
16,6500 µM,O=C(O)c1c(O)c(-c2ccccc2)nc2ccccc12 [OXYCINCHOPHEN]
17,1500 µM,Cc1ccc2c(C(=O)O)c(O)c(-c3ccccc3)nc2c1C
18,200 µM,Cc1ccc2[nH]cc(Cc3nc4c5c(ccc4c(C(=O)O)c3O)CCCC5)c2c1
19,250 µM,CC(C)COC(=O)Oc1c(Cc2ccc(Cl)cc2)nc2c3c(ccc2c1C(=O)O)CCCC3
20,500 µM,N#Cc1ccc(Cc2nc3c4c(ccc3c(C(=O)O)c2O)CCCC4)cc1
21,325 µM,O=C(O)c1c(O)c(Cc2ccc(Cl)cc2)nc2c(C(F)(F)F)cccc12
22,190 µM,O=C(Oc1c(Cc2ccc(Cl)cc2)nc2c3c(ccc2c1C(=O)O)CCCC3)c1ccccc1

row,IC50,SMILES
1,175 µM,O=C(O)c1c(O)c(Cc2c[nH]c3ccc(Br)cc23)nc2c3c(ccc12)CCCC3
2,175 µM,O=C(Oc1c(Cc2ccc(Cl)cc2)nc2c3c(ccc2c1C(=O)O)CCCC3)c1cccs1
3,225 µM,O=C(O)c1c(O)c(Cc2ccc(Cl)cc2)nc2c(-c3ccsc3)cccc12
4,550 µM,O=C(O)c1c(O)c(Cc2ccc(Cl)cc2)nc2c(OC(F)(F)F)cccc12
5,545 µM,CC(=O)Oc1c(Cc2ccc(Cl)cc2)nc2c3c(ccc2c1C(=O)O)CCCC3
6,225 µM,CC(C)c1cccc2c(C(=O)O)c(O)c(Cc3ccc(Cl)cc3)nc12
7,1250 µM,NC(=O)c1ccc(Cc2nc3c4c(ccc3c(C(=O)O)c2O)CCCC4)cc1
8,200 µM,Cc1ccc(-c2nc3c4c(ccc3c(C(=O)O)c2O)CCCC4)s1
9,715 µM,O=C(O)c1c(O)c(Cc2ccc(Cl)cc2)nc2c(Cl)cccc12
10,580 µM,O=C(O)c1c(O)c(Cc2ccc(Cl)cc2)nc2c3c(ccc12)CCC3
11,400 µM,COC(=O)Oc1c(Cc2ccc(Cl)cc2)nc2c3c(ccc2c1C(=O)O)CCCC3
12,413 µM,O=C(O)c1c(O)c(Cc2ccccc2)nc2c3c(ccc12)CCCC3
13,413 µM,O=C(O)c1c(O)c(Cc2cccs2)nc2c3c(ccc12)CCCC3
14,390 µM,O=C(O)c1c(OCc2ccccc2)c(Cc2ccc(Cl)cc2)nc2c3c(ccc12)CCCC3
15,400 µM,COc1ccc2[nH]cc(Cc3nc4c5c(ccc4c(C(=O)O)c3O)CCCC5)c2c1
16,475 µM,O=C(O)c1c(O)c(Cc2ccsc2)nc2c3c(ccc12)CCCC3
17,200 µM,O=C(O)c1c(O)c(Cc2ccc(Cl)cc2)nc2c(-c3ccccc3)cccc12
18,500 µM,CC(C)S(=O)(=O)N1CCc2ccc3c(C(=O)O)c(O)c(Cc4ccc(Cl)cc4)nc3c2C1
19,450 µM,O=C(O)c1c(O)c(CCc2ccccc2)nc2c3c(ccc12)CCCC3
20,225 µM,O=C(O)c1c(O)c(-c2c[nH]c3ccccc23)nc2c3c(ccc12)CCCC3
21,100 µM,O=C(O)c1c(O)c(Cc2csc3ccccc23)nc2c3c(ccc12)CCCC3
22,425 µM,O=C(O)c1c(O)c(Cc2ccc(Cl)cc2)nc2c(Br)cccc12

# Molecular target: T1, P-selectin (Homo sapiens)
# Assay: as §1
row,Activity,SMILES
1,inactive,O=C(O)c1c(O)c(Cc2c[nH]c3ccccc23)nc2c(F)cccc12
2,inactive,NC(=O)N1CCc2ccc3c(C(=O)O)c(O)c(Cc4ccc(Cl)cc4)nc3c2C1
3,inactive,O=C(O)c1c(O)c(Cc2ccc(Cl)cc2)nc2ccccc12
4,inactive,O=C(O)c1c(O)c(Cc2c[nH]c3ccccc23)nc2cc(Br)ccc12
5,inactive,O=C(O)c1c(O)c(Cc2ccc(Cl)cc2)nc2c3c(ccc12)CCNC3
6,inactive,O=C(O)c1c(O)c(Cc2c[nH]c3ccccc23)nc2ccccc12
7,inactive,O=C(O)c1c(Cc2ccc(Cl)cc2)nc2c3c(ccc2c1O)CCCC3
8,inactive,CC(C)OC(=O)n1cc(Cc2nc3c4c(ccc3c(C(=O)O)c2O)CCCC4)c2ccccc21
9,inactive,O=C(O)c1c(O)c(Cc2c[nH]c3ccccc23)nc2ccc(Br)cc12
10,inactive,CC(C)N1CCc2ccc3c(C(=O)O)c(O)c(Cc4ccc(Cl)cc4)nc3c2C1
11,inactive,CCN1CCc2ccc3c(C(=O)O)c(O)c(Cc4ccc(Cl)cc4)nc3c2C1
12,inactive,O=C(O)c1c(O)c(Cc2csc3ccc(Cl)cc23)nc2c3c(ccc12)CCCC3
13,inactive,COc1ccc(-c2ccccc2)c2nc(Cc3ccc(Cl)cc3)c(O)c(C(=O)O)c12
14,inactive,O=C(O)c1c(O)c(Cc2c[nH]c3ccccc23)nc2ccc(OC(F)(F)F)cc12
15,inactive,Cc1ccc2nc(Cc3c[nH]c4ccccc34)c(O)c(C(=O)O)c2c1
16,inactive,O=C(O)c1c(O)c(Cc2cn(C(=O)Cc3ccccc3)c3ccccc23)nc2c3c(ccc12)CCCC3
17,inactive,CCOC(=O)N1CCc2ccc3c(C(=O)O)c(O)c(Cc4ccc(Cl)cc4)nc3c2C1
18,inactive,O=C(O)c1c(O)c(Cc2c[nH]c3ccccc23)nc2c(Cl)cccc12
19,inactive,CCc1ccc2c(C(=O)O)c(O)c(Cc3c[nH]c4ccccc34)nc2c1
20,inactive,O=C(OCc1ccccc1)c1c(OCc2ccccc2)c(Cc2ccc(Cl)cc2)nc2c3c(ccc12)CCCC3
21,inactive,O=C(O)c1c(O)c(Cc2ccc(Cl)cc2)nc2c3c(ccc12)CCN(C(=O)c1ccccc1)C3
22,inactive,CC(=O)N1CCc2ccc3c(C(=O)O)c(O)c(Cc4ccc(Cl)cc4)nc3c2C1
23,inactive,O=C(O)c1c(O)c(Cc2ccc(Cl)cc2)nc2c3c(ccc12)CCN(Cc1ccccc1)C3
24,inactive,Cc1ccc2c(C(=O)O)c(O)c(Cc3c[nH]c4ccccc34)nc2c1
25,inactive,O=C(O)c1c(O)c(Cc2c[nH]c3ccccc23)nc2ccc(F)cc12

# Molecular target: T1, P-selectin (Homo sapiens)
# Assay: Inhibition of P-Selectin by Biacore assay at 500 uM
row,inhibition,SMILES
1,11%,Cc1cccc2c(C(=O)O)c(O)c(Cc3c[nH]c4ccccc34)nc12
2,12%,CC(C)(C)c1cccc2c(C(=O)O)c(O)c(Cc3ccc(Cl)cc3)nc12
3,10%,O=C(O)c1ccc(Cc2nc3c4c(ccc3c(C(=O)O)c2O)CCCC4)cc1
4,22%,Cc1c(Cc2nc3c4c(ccc3c(C(=O)O)c2O)CCCC4)sc2ccccc12
5,12%,O=C(O)c1c(O)c(Cc2ccc(Cl)cc2)nc2c(F)cccc12
6,38%,O=C(O)c1c(O)c(Cc2ccc(Cl)cc2)nc2ccc(-c3ccccc3)cc12
7,19%,CCc1ccc2c(C(=O)O)c(O)c(Cc3ccc(Cl)cc3)nc2c1
8,15%,O=C(O)c1c(O)c(Cc2c[nH]c3ccccc23)nc2c(Br)cccc12
9,36%,O=C(O)c1c(O)c(Cc2ccc(Cl)c(Cl)c2)nc2c3c(ccc12)CCCC3
10,12%,Cc1ccc2c(C(=O)O)c(O)c(Cc3ccc(Cl)cc3)nc2c1
11,19%,CCc1cccc2c(C(=O)O)c(O)c(Cc3c[nH]c4ccccc34)nc12
12,8%,O=C(O)c1c(O)c(Cc2ccc(Cl)cc2)nc2c(C(=O)O)cccc12
13,18%,O=C(O)c1c(O)c(Cc2c[nH]c3ccccc23)nc2c(OC(F)(F)F)cccc12
14,15%,O=C(O)c1c(O)c(Cc2c[nH]c3ccccc23)nc2c(C(F)(F)F)cccc12
15,34%,CC(=O)n1cc(Cc2nc3c4c(ccc3c(C(=O)O)c2O)CCCC4)c2ccccc21
